Like-named read-outs stand apart in the source and are kept apart here.

The IC50 is the point on the concentration scale where inhibition reaches its midpoint.

For the assay, the target named is T1, truncated human beta-secretase (residues 1-458, His6-tagged at the C-terminus) (Homo sapiens, UniProt P56817).
T1 construct: truncated human beta-secretase (residues 1-458, His6-tagged at the C-terminus); His6 (C); made in house; host or cells: insect cells D. melanogaster S2 (baculovirus expression system (so in the source))
T1 sequence (P56817 22-458): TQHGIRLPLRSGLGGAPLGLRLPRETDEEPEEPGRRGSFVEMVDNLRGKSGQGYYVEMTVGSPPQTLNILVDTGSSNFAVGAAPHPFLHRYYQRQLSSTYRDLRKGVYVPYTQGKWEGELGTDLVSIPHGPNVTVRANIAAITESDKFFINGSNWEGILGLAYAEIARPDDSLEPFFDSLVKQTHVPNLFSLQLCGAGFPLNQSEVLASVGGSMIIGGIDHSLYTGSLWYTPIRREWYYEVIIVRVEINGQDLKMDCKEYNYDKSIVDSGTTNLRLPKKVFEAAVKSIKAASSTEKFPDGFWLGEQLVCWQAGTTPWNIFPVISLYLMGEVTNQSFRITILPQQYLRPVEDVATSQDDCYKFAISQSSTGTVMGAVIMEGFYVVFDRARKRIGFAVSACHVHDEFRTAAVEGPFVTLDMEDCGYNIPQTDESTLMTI
The assay can be described thus: BACE fluorescence quench assay. The assay is classed as biochemical. The protocol:
The assay was performed at room temperature in 96-well white opaque Optiplates aque Optiplates (PerkinElmer, Waltham, Mass.) in a total volume of 200 μl of the incubation mixture containing 50 mM sodium acetate buffer, pH 4.5, 0.4 μM FRET substrate, 2.4 nM enzyme, 5% DMSO, and 0.05% Brij-35. The tested compounds were serially diluted in DMSO and pre-incubated with the substrate. The reaction was started by addition of enzyme, and the progress of the reaction was followed by measuring fluorescence with an excitation wavelength of 480 nm and an emission wavelength of 520 nm. Ten measurements were taken every 5-10 min, and the intensity of fluorescence was regressed against time in order to derive velocities of reaction in all 96 wells. […] IC50 values were calculated by fitting percent inhibition vs. inhibitor concentration into a four-parametric logistic model using XLFit software (IDBS, Guildford, UK).

[1] abbreviates: in vitro enzyme activity, BACE fluorescence assay, pH 4.5, read-out: IC50.

`CN1C(=O)C2(CC(c3ccc(F)cc3)Oc3ccc(-c4cccc(C#N)c4)cc32)N=C1N` (centres unmarked) [Compound 19, 3-(2′-amino-2-(4-fluorophenyl)-1′-methyl-5′-oxo-1′,5′-dihydrospiro[chroman-4,4′-imidazole]-6-yl)benzonitrile]: the IC50 under setting [1] lay in the range of 0.5 to 1 µM.

Take `CN1C(=O)[C@@]2(C[C@@H](c3ccc(F)cc3)Oc3ccc(-c4cccc(C#N)c4)cc32)N=C1N` [Compound 19a, 3-((2S,4S)-2′-amino-2-(4-fluorophenyl)-1′-methyl-5′-oxo-1′,5′-dihydrospiro[chroman-4,4′-imidazole]-6-yl)benzonitrile]: the IC50 under setting [1] was in the range of 0.5 to 1 µM.

Turning to `CN1C(=O)C2(CC(c3cccc(Cl)c3)Oc3ccc(-c4cccc(C#N)c4)cc32)N=C1N` (centres unmarked) [Compound 20, 3-(2′-amino-2-(3-chlorophenyl)-1′-methyl-5′-oxo-1′,5′-dihydrospiro[chroman-4,4′-imidazole]-6-yl)benzonitrile], the half-maximal inhibitory concentration (IC50) under setting [1] fell in the range of 0.5 to 1 µM.

As for `CN1C(=O)C2(CC(c3ccccc3)Oc3ccc(-c4cc(C#N)ccc4Cl)cc32)N=C1N` (centres unmarked) [Compound 21, 3-(2′-amino-1′-methyl-5′-oxo-2-phenyl-1′,5′-dihydrospiro[chroman-4,4′-imidazole]-6-yl)-4-chlorobenzonitrile], the IC50 is 0.5 to 1 µM.

In the case of `C=Cc1cccc(-c2ccc3c(c2)C2(CC(c4ccccc4)O3)N=C(N)N(C)C2=O)c1` (centres unmarked) [Compound 22, 2′-amino-1′-methyl-2-phenyl-6-(3-vinylphenyl)spiro[chroman-4,4′-imidazol]-5′(1′H)-one], the IC50 lay in the range of 1 to 5 µM.

Take `COc1cccc(C2CC3(N=C(N)N(C)C3=O)c3cc(-c4cccc(C#N)c4)ccc3O2)c1` (centres unmarked) [Compound 23, 3-(2′-amino-2-(3-methoxyphenyl)-1′-methyl-5′-oxo-1′,5′-dihydrospiro[chroman-4,4′-imidazole]-6-yl)benzonitrile]: the IC50 under setting [1] fell in the range of 1 to 5 µM.

In turn, `CN1C(=O)C2(CC(c3ccccc3)Oc3ccc(-c4cccc(OC(F)(F)F)c4)cc32)N=C1N` (centres unmarked) [Compound 24, 2′-amino-1′-methyl-2-phenyl-6-(3-(trifluoromethoxy)phenyl)spiro[chroman-4,4′-imidazol]-5′(1′H)-one] returned an IC50 of 1 to 5 µM.

`CN1C(=O)C2(CC(c3ccccc3)Oc3ccc(-c4ccc(CO)cc4)cc32)N=C1N` (centres unmarked) [Compound 26, 2′-amino-6-(4-(hydroxymethyl)phenyl)-1′-methyl-2-phenylspiro[chroman-4,4′-imidazol]-5′(1′H)-one] registered a half-maximal inhibitory concentration (IC50) of 1 to 5 µM.

In turn, `CN1C(=O)C2(CC(c3ccccc3)Oc3ccc(-c4ccccc4)cc32)N=C1N` (centres unmarked) [Compound 27, 2′-amino-1′-methyl-2,6-diphenylspiro-[chroman-4,4′-imidazol]-5′(1′H)-one] came in with an IC50 of 1 to 5 µM.

Consider `CN1C(=O)C2(CC(c3ccccc3)Oc3ccc(-c4cccc(S(C)(=O)=O)c4)cc32)N=C1N` (centres unmarked) [Compound 28, 2′-amino-1′-methyl-6-(3-(methylsulfonyl)phenyl)-2-phenylspiro[chroman-4,4′-imidazol]-5′(1′H)-one], for which the IC50 is 1 to 5 µM.

Consider `CN1C(=O)C2(CC(c3ccccc3)Oc3ccc(-c4cccc(CC#N)c4)cc32)N=C1N` (centres unmarked) [Compound 29, 2-(3-(2′-amino-1′-methyl-5′-oxo-2-phenyl-1′,5′-dihydrospiro[chroman-4,4′-imidazole]-6-yl)phenyl)acetonitrile], for which the IC50 lay in the range of 1 to 5 µM.

As to `CN1C(=O)C2(CC(c3ccccc3)Oc3ccc(-c4cccc(C(F)(F)F)c4)cc32)N=C1N` (centres unmarked) [Compound 30, 2′-amino-1′-methyl-2-phenyl-6-(3-(trifluoromethyl)phenyl)spiro[chroman-4,4′-imidazol]-5′(1′H)-one], the IC50 is 1 to 5 µM.

As for `CN1C(=O)C2(CC(c3cccnc3)Oc3ccc(-c4cccc(C#N)c4)cc32)N=C1N` (centres unmarked) [Compound 31], the IC50 under setting [1] is 1 to 5 µM.

Turning to `CN1C(=O)C2(CC(C)(c3ccccc3)Oc3ccc(-c4cccc(C#N)c4)cc32)N=C1N` (centres unmarked) [Compound 32, 3-(2′-amino-1′,2-dimethyl-5′-oxo-2-phenyl-1′,5′-dihydrospiro[chroman-4,4′-imidazole]-6-yl)benzonitrile], the IC50 under setting [1] lay in the range of 1 to 5 µM.

As to `CN1C(=O)C2(CC(c3ccccc3)Oc3ccc(-c4cccc(CO)c4)cc32)N=C1N` (centres unmarked) [Compound 33, 2′-amino-6-(3-(hydroxymethyl)phenyl)-1′-methyl-2-phenylspiro[chroman-4,4′-imidazol]-5′(1′H)-one], the IC50 lay within 1 to 5 µM.

With `CN1C(=O)C2(CC(c3cccc(Cl)c3)Oc3ccc(Br)cc32)N=C1N` (centres unmarked) [Compound 34, 2′-amino-6-bromo-2-(3-chlorophenyl)-1′-methylspiro[chroman-4,4′-imidazol]-5′(1′H)-one], the 50% inhibitory concentration (IC50) under setting [1] fell in the range of 1 to 5 µM.

In turn, `CN1C(=O)C2(CC(c3ccccc3)Oc3ccc(-c4ccccc4C#N)cc32)N=C1N` (centres unmarked) [Compound 35, 2-(2′-amino-1′-methyl-5′-oxo-2-phenyl-1′,5′-dihydrospiro[chroman-4,4′-imidazole]-6-yl)benzonitrile] had an IC50 of 1 to 5 µM.

Regarding `CN1C(=O)C2(CC(c3ccccc3)Oc3ccc(-c4cccs4)cc32)N=C1N` (centres unmarked) [Compound 36, 2′-amino-1′-methyl-2-phenyl-6-(thiophen-2-yl)spiro[chroman-4,4′-imidazol]-5′(1′H)-one], the IC50 fell in the range of 1 to 5 µM.

Turning to `CN1C(=O)C2(CC(c3cccc(F)c3)Oc3ccc(Br)cc32)N=C1N` (centres unmarked) [Compound 38, 2′-amino-6-bromo-2-(3-fluorophenyl)-1′-methylspiro[chroman-4,4′-imidazol]-5′(1′H)-one], under setting [1], the 50% inhibitory concentration (IC50) was 1 to 5 µM.

`CN(C)C(=O)c1cccc(-c2ccc3c(c2)C2(CC(c4ccccc4)O3)N=C(N)N(C)C2=O)c1` (centres unmarked) [Compound 39, 3-(2′-amino-1′-methyl-5′-oxo-2-phenyl-1′,5′-dihydrospiro[chroman-4,4′-imidazole]-6-yl)-N,N-dimethylbenzamide] came in with a half-maximal inhibitory concentration (IC50) of 1 to 5 µM.

`CN1C(=O)C2(CC(c3ccccc3)Oc3ccc(-c4ccc(F)c(C(=O)NCCO)c4)cc32)N=C1N` (centres unmarked) [Compound 40, 5-(2′-amino-1′-methyl-5′-oxo-2-phenyl-1′,5′-dihydrospiro[chroman-4,4′-imidazole]-6-yl)-2-fluoro-N-(2-hydroxyethyl)benzamide] returned an IC50 of 1 to 5 µM.

Regarding `CC(=O)Nc1cccc(-c2ccc3c(c2)C2(CC(c4ccccc4)O3)N=C(N)N(C)C2=O)c1` (centres unmarked) [Compound 41, N-(3-(2′-amino-1′-methyl-5′-oxo-2-phenyl-1′,5′-dihydrospiro[chroman-4,4′-imidazole]-6-yl)phenyl)acetamide], the IC50 is 1 to 5 µM.

For the compound `CN1C(=O)C2(CC(c3cccc(F)c3F)Oc3ccc(Br)cc32)N=C1N` (centres unmarked) [Compound 42], the IC50 under setting [1] lay within 5 to 10 µM.

`CC(=O)NCc1cccc(-c2ccc3c(c2)C2(CC(c4ccccc4)O3)N=C(N)N(C)C2=O)c1` (centres unmarked) [Compound 43, N-(3-(2′-amino-1′-methyl-5′-oxo-2-phenyl-1′,5′-dihydrospiro[chroman-4,4′-imidazole]-6-yl)benzyl)acetamide]: the half-maximal inhibitory concentration (IC50) lay in the range of 5 to 10 µM.

Take `CN1C(=O)C2(CC(c3ccccc3)Oc3ccc(Br)cc32)N=C1N` (centres unmarked) [Compound 44, 2′-amino-6-bromo-1′-methyl-2-phenylspiro[chroman-4,4′-imidazol]-5′(1′H)-one]: the IC50 was in the range of 10 to 50 µM.

Consider `CN1C(=O)C2(CC(c3ccccc3)Oc3ccc(-c4cccc(S(=O)(=O)N(C)C)c4)cc32)N=C1N` (centres unmarked) [Compound 45, 3-(2′-amino-1′-methyl-5′-oxo-2-phenyl-1′,5′-dihydrospiro[chroman-4,4′-imidazole]-6-yl)-N,N-dimethylbenzenesulfonamide], for which the concentration for half-maximal inhibition (IC50) was 5 to 10 µM.

For the compound `COc1cccc(C2CC3(N=C(N)N(C)C3=O)c3cc(Br)ccc3O2)c1` (centres unmarked) [Compound 46, 2′-amino-6-bromo-2-(3-methoxyphenyl)-1′-methylspiro[chroman-4,4′-imidazol]-5′(1′H)-one], under setting [1], the concentration for half-maximal inhibition (IC50) lay within 5 to 10 µM.

`CN1C(=O)C2(CC(c3ccccc3)Oc3ccc(-c4cccc(C(=O)NCCC#N)c4)cc32)N=C1N` (centres unmarked) [Compound 47, 3-(2′-amino-1′-methyl-5′-oxo-2-phenyl-1′,5′-dihydrospiro[chroman-4,4′-imidazole]-6-yl)-N-(2-cyanoethyl)benzamide] registered an IC50 of 5 to 10 µM.

In turn, `CNS(=O)(=O)c1cccc(-c2ccc3c(c2)C2(CC(c4ccccc4)O3)N=C(N)N(C)C2=O)c1` (centres unmarked) [Compound 48, 3-(2′-amino-1′-methyl-5′-oxo-2-phenyl-1′,5′-dihydrospiro[chroman-4,4′-imidazole]-6-yl)-N-methylbenzenesulfonamide] returned a half-maximal inhibitory concentration (IC50) of 5 to 10 µM.

The compound `CN1C(=O)C2(CC(c3ccccc3)Oc3ccc(-c4ccc(S(C)(=O)=O)cc4)cc32)N=C1N` (centres unmarked) [Compound 49, 2′-amino-1′-methyl-6-(4-(methylsulfonyl)phenyl)-2-phenylspir-o[chroman-4,4′-imidazol]-5′(1′H)-one] gave an IC50 of 5 to 10 µM.

`CNC(=O)c1cccc(-c2ccc3c(c2)C2(CC(c4ccccc4)O3)N=C(N)N(C)C2=O)c1` (centres unmarked) [Compound 50, 3-(2′-amino-1′-methyl-5′-oxo-2-phenyl-1′,5′-dihydrospiro[chroman-4,4′-imidazole]-6-yl)-N-methylbenzamide]: the 50% inhibitory concentration (IC50) fell in the range of 5 to 10 µM.

For `CN1C(=O)C2(CC(c3ccccc3)Oc3ccc(-c4cccc(NS(C)(=O)=O)c4)cc32)N=C1N` (centres unmarked) [Compound 52, N-(3-(2′-amino-1′-methyl-5′-oxo-2-phenyl-1′,5′-dihydrospiro[chroman-4,4′-imidazole]-6-yl)phenyl)methanesulfonamide], the IC50 was 5 to 10 µM.

These data come from patent US8450308B2 (Vitae Pharmaceuticals, Inc., priority 2008, dated 2013).
